Test results: PubChem BioAssay AID1745844 (Carcinogenic Potency Database (CPDB), 2022)
Calls of active or inactive are those of the source. The rule behind the calls is not given here.

Tested on: rodent lifetime carcinogenesis bioassay, tumor incidence TD50
Assay: carcinogenic potency in animals, long-term in vivo studies, CPDB compilation (AID 1745844)
[1] = mouse, strain B6C3F1, females, in feed, site: any site (literature study), lesion: several types, types named in the paper, dosed 78 weeks, study length 95 weeks
[2] = mouse, strain B6C3F1, females, in feed, site: liver, lesion: hepatocellular adenoma + hepatocellular carcinoma + neoplastic nodule, dosed 78 weeks, study length 95 weeks
[3] = mouse, strain B6C3F1, females, in feed, site: liver, lesion: hepatocellular adenoma + hepatocellular carcinoma, dosed 78 weeks, study length 95 weeks
[4] = mouse, strain B6C3F1, females, in feed, site: liver, lesion: hepatocellular carcinoma, dosed 78 weeks, study length 95 weeks
[5] = mouse, strain B6C3F1, males, in feed, site: any site (literature study), lesion: several types, types named in the paper, dosed 78 weeks, study length 95 weeks
[6] = mouse, strain B6C3F1, males, in feed, site: liver, lesion: hepatocellular adenoma + hepatocellular carcinoma + neoplastic nodule, dosed 78 weeks, study length 95 weeks
[7] = rat, strain Fischer 344, males, in feed, site: any site (literature study), lesion: several types, types named in the paper, dosed 78 weeks, study length 105 weeks
[8] = rat, strain Fischer 344, males, in feed, site: liver, lesion: hepatocellular adenoma + hepatocellular carcinoma + neoplastic nodule, dosed 78 weeks, study length 105 weeks

SMILES: O=[N+]([O-])c1ccc2nc[nH]c2c1
- TD50 [1]: 429 mg/kg/day
- TD50 [2]: 354 mg/kg/day
- TD50 [3]: 354 mg/kg/day
- TD50 [4]: 762 mg/kg/day
- TD50 (mouse, strain B6C3F1, females, in feed, site: pituitary gland, lesion: adenoma, NOS + chromophobe adenoma, dosed 78 weeks, study length 95 weeks): 335 mg/kg/day
- TD50 [5]: 1980 mg/kg/day
- TD50 [6]: 392 mg/kg/day
- TD50 (mouse, strain B6C3F1, males, in feed, site: liver, lesion: hepatocellular adenoma + hepatocellular carcinoma, dosed 78 weeks, study length 95 weeks): 392 mg/kg/day
- TD50 (mouse, strain B6C3F1, males, in feed, site: liver, lesion: hepatocellular carcinoma, dosed 78 weeks, study length 95 weeks): 423 mg/kg/day
- carcinogen call (rat, strain Fischer 344, females, in feed, site: any site (literature study), lesion: several types, types named in the paper, dosed 78 weeks, study length 105 weeks): negative (inactive)
- carcinogen call [7]: negative (inactive)
- TD50 [8]: 8830 mg/kg/day

SMILES: CC(C)(C)c1cc([N+](=O)[O-])cc([N+](=O)[O-])c1OS(C)(=O)=O
- TD50 (rat, strain Sprague-Dawley, females, in feed, site: any site (literature study), lesion: several types, types named in the paper, dosed 52 weeks, study length 52 weeks): 2.66 mg/kg/day

SMILES: Nc1cc(Cl)c(N)c(Cl)c1
- TD50 (mouse, strain B6C3F1, females, in feed, site: any site (literature study), lesion: several types, types named in the paper, dosed 103 weeks, study length 111 weeks): 801 mg/kg/day
- TD50 (mouse, strain B6C3F1, females, in feed, site: liver, lesion: hepatocellular adenoma + hepatocellular carcinoma + neoplastic nodule, dosed 103 weeks, study length 111 weeks): 883 mg/kg/day
- TD50 (mouse, strain B6C3F1, females, in feed, site: liver, lesion: hepatocellular adenoma + hepatocellular carcinoma, dosed 103 weeks, study length 111 weeks): 883 mg/kg/day
- TD50 (mouse, strain B6C3F1, females, in feed, site: liver, lesion: hepatocellular carcinoma, dosed 103 weeks, study length 111 weeks): 2030 mg/kg/day
- TD50 (mouse, strain B6C3F1, females, in feed, site: lung, lesion: alveolar/bronchiolar adenoma + alveolar/bronchiolar carcinoma, dosed 103 weeks, study length 111 weeks): 42100 mg/kg/day
- TD50 (mouse, strain B6C3F1, males, in feed, site: any site (literature study), lesion: several types, types named in the paper, dosed 103 weeks, study length 111 weeks): 1730 mg/kg/day
- TD50 (mouse, strain B6C3F1, males, in feed, site: liver, lesion: hepatocellular adenoma + hepatocellular carcinoma + neoplastic nodule, dosed 103 weeks, study length 111 weeks): 737 mg/kg/day
- TD50 (mouse, strain B6C3F1, males, in feed, site: liver, lesion: hepatocellular adenoma + hepatocellular carcinoma, dosed 103 weeks, study length 111 weeks): 737 mg/kg/day
- TD50 (mouse, strain B6C3F1, males, in feed, site: liver, lesion: hepatocellular adenoma, dosed 103 weeks, study length 111 weeks): 933 mg/kg/day
- carcinogen call (rat, strain Fischer 344, females, in feed, site: any site (literature study), lesion: several types, types named in the paper, dosed 103 weeks, study length 111 weeks): negative (inactive)
- TD50 (rat, strain Fischer 344, females, in feed, site: liver, lesion: hepatocellular adenoma + hepatocellular carcinoma + neoplastic nodule, dosed 103 weeks, study length 111 weeks): 2960 mg/kg/day
- TD50 (rat, strain Fischer 344, males, in feed, site: any site (literature study), lesion: several types, types named in the paper, dosed 103 weeks, study length 111 weeks): 914 mg/kg/day (inactive)
- TD50 (rat, strain Fischer 344, males, in feed, site: liver, lesion: hepatocellular adenoma + hepatocellular carcinoma + neoplastic nodule, dosed 103 weeks, study length 111 weeks): 340 mg/kg/day

SMILES: COC(=O)C(C)(C)Oc1ccc(-c2ccc(Cl)cc2)cc1
- TD50 (mouse, strain AP Alderly Park, females, in feed, site: liver, lesion: hepatocellular adenoma, dosed 78 weeks, study length 78 weeks): 2.27 mg/kg/day
- TD50 (mouse, strain AP Alderly Park, females, in feed, site: liver, lesion: hepatocellular carcinoma, dosed 78 weeks, study length 78 weeks): 8.3 mg/kg/day
- TD50 (mouse, strain AP Alderly Park, females, in feed, site: liver, lesion: several types, types named in the paper, dosed 52 weeks, study length 78 weeks): 25 mg/kg/day
- TD50 (mouse, strain AP Alderly Park, females, several routes, site: liver, lesion: hepatocellular adenoma, dosed 78 weeks, study length 78 weeks): 48.5 mg/kg/day
- TD50 (mouse, strain AP Alderly Park, females, several routes, site: liver, lesion: hepatocellular carcinoma, dosed 78 weeks, study length 78 weeks): 13.4 mg/kg/day
- TD50 (mouse, strain AP Alderly Park, females, several routes, site: lung, lesion: adenoma, dosed 78 weeks, study length 78 weeks): 890 mg/kg/day
- TD50 (mouse, strain AP Alderly Park, males, in feed, site: liver, lesion: hepatocellular adenoma, dosed 78 weeks, study length 78 weeks): 2.75 mg/kg/day
- TD50 (mouse, strain AP Alderly Park, males, in feed, site: liver, lesion: hepatocellular carcinoma, dosed 78 weeks, study length 78 weeks): 0.858 mg/kg/day
- TD50 (mouse, strain AP Alderly Park, males, in feed, site: liver, lesion: several types, types named in the paper, dosed 26 weeks, study length 78 weeks): 2.08 mg/kg/day
- TD50 (mouse, strain AP Alderly Park, males, in feed, site: liver, lesion: several types, types named in the paper, dosed 52 weeks, study length 78 weeks): 5.94 mg/kg/day
- TD50 (mouse, strain AP Alderly Park, males, several routes, site: liver, lesion: hepatocellular carcinoma, dosed 78 weeks, study length 78 weeks): 16.8 mg/kg/day
- TD50 (rat, strain Alpk:APfSD, females, in feed, site: liver, lesion: hepatocellular adenoma, dosed 104 weeks, study length 104 weeks): 460 mg/kg/day
- TD50 (rat, strain Alpk:APfSD, females, in feed, site: liver, lesion: hepatocellular carcinoma, dosed 104 weeks, study length 104 weeks): 5.88 mg/kg/day
- TD50 (rat, strain Alpk:APfSD, males, in feed, site: liver, lesion: hepatocellular adenoma, dosed 104 weeks, study length 104 weeks): 17.4 mg/kg/day
- TD50 (rat, strain Alpk:APfSD, males, in feed, site: liver, lesion: hepatocellular carcinoma, dosed 104 weeks, study length 104 weeks): 2.87 mg/kg/day
- TD50 (rat, strain Alpk:APfSD, males, in feed, site: pancreas, exocrine, lesion: adenoma, dosed 52 weeks, study length 104 weeks): 1.44 mg/kg/day
- TD50 (rat, strain Alpk:APfSD, males, in feed, site: pancreas, exocrine, lesion: adenoma, dosed 104 weeks, study length 104 weeks): 18.5 mg/kg/day
- TD50 (rat, strain Alpk:APfSD, males, in feed, site: testis, lesion: Leydig-cell adenoma, dosed 104 weeks, study length 104 weeks): 2.93 mg/kg/day
- carcinogen call (rat, strain Fischer 344, males, in feed, site: liver, lesion: hepatocellular carcinoma, dosed 75 weeks, study length 75 weeks): positive

SMILES: O=[N+]([O-])c1ccc(-c2nc(N3CCOCC3)c3ccccc3n2)s1
- TD50 (rat, strain Sprague-Dawley, females, in feed, site: any site (literature study), lesion: several types, types named in the paper, dosed 46 weeks, study length 66 weeks): 5.03 mg/kg/day

SMILES: [O-]/[N+](=N\O)c1ccccc1
- TD50 (mouse, strain B6C3F1, females, in feed, site: Harderian gland, lesion: adenoma, NOS, dosed 78 weeks, study length 95 weeks): 1270 mg/kg/day
- TD50 (mouse, strain B6C3F1, females, in feed, site: Zymbal's gland, lesion: sebaceous adenocarcinoma + squamous-cell carcinoma, dosed 78 weeks, study length 95 weeks): 3930 mg/kg/day
- TD50 (mouse, strain B6C3F1, females, in feed, site: all sites + Harderian gland + liver + Zymbal's gland, lesion: hemangioma + hemangiosarcoma + adenoma, NOS + hepatocellular adenoma + hepatocellular carcinoma + sebaceous adenocarcinoma + squamou, dosed 78 weeks, study length 95 weeks): 253 mg/kg/day
- TD50 (mouse, strain B6C3F1, females, in feed, site: all sites, lesion: hemangioma + hemangiosarcoma, dosed 78 weeks, study length 95 weeks): 419 mg/kg/day
- TD50 (mouse, strain B6C3F1, females, in feed, site: all sites, lesion: hemangiosarcoma, dosed 78 weeks, study length 95 weeks): 1330 mg/kg/day
- TD50 [1]: 211 mg/kg/day
- TD50 [2]: 413 mg/kg/day
- TD50 [3]: 413 mg/kg/day
- TD50 [4]: 564 mg/kg/day
- TD50 (mouse, strain B6C3F1, females, in feed, site: lung, lesion: alveolar/bronchiolar adenoma + alveolar/bronchiolar carcinoma, dosed 78 weeks, study length 95 weeks): 798 mg/kg/day
- TD50 (mouse, strain B6C3F1, males, in feed, site: Harderian gland, lesion: adenoma, NOS, dosed 78 weeks, study length 95 weeks): 1040 mg/kg/day
- TD50 (mouse, strain B6C3F1, males, in feed, site: all sites, lesion: hemangiosarcoma, dosed 78 weeks, study length 95 weeks): 1000 mg/kg/day
- TD50 [5]: 252 mg/kg/day
- TD50 [6]: 5450 mg/kg/day
- TD50 (mouse, strain B6C3F1, males, in feed, site: lung, lesion: alveolar/bronchiolar adenoma + alveolar/bronchiolar carcinoma, dosed 78 weeks, study length 95 weeks): 2390 mg/kg/day
- TD50 (rat, strain Fischer 344, females, in feed, site: Zymbal's gland, lesion: ceruminous carcinoma + squamous-cell carcinoma, dosed 78 weeks, study length 106 weeks): 171 mg/kg/day
- TD50 (rat, strain Fischer 344, females, in feed, site: all sites + liver + stomach + Zymbal's gland, lesion: hemangiosarcoma + hepatocellular carcinoma + neoplastic nodule + squamous-cell carcinoma + squamous-cell papilloma + ceruminous ca, dosed 78 weeks, study length 106 weeks): 14.1 mg/kg/day
- TD50 (rat, strain Fischer 344, females, in feed, site: all sites, lesion: hemangiosarcoma, dosed 78 weeks, study length 106 weeks): 17.4 mg/kg/day
- TD50 (rat, strain Fischer 344, females, in feed, site: any site (literature study), lesion: several types, types named in the paper, dosed 78 weeks, study length 106 weeks): 11.2 mg/kg/day
- TD50 (rat, strain Fischer 344, females, in feed, site: liver, lesion: hepatocellular adenoma + hepatocellular carcinoma + neoplastic nodule, dosed 78 weeks, study length 106 weeks): 17.7 mg/kg/day
- TD50 (rat, strain Fischer 344, females, in feed, site: liver, lesion: hepatocellular carcinoma + neoplastic nodule, dosed 78 weeks, study length 106 weeks): 17.7 mg/kg/day
- TD50 (rat, strain Fischer 344, females, in feed, site: liver, lesion: hepatocellular carcinoma, dosed 78 weeks, study length 106 weeks): 20.1 mg/kg/day
- TD50 (rat, strain Fischer 344, females, in feed, site: stomach, lesion: squamous-cell carcinoma + squamous-cell papilloma, dosed 78 weeks, study length 106 weeks): 27.8 mg/kg/day
- TD50 (rat, strain Fischer 344, females, in feed, site: stomach, lesion: squamous-cell carcinoma, dosed 78 weeks, study length 106 weeks): 31.3 mg/kg/day
- TD50 (rat, strain Fischer 344, males, in feed, site: all sites + liver + stomach, lesion: hemangiosarcoma + hepatocellular carcinoma + neoplastic nodule + squamous-cell carcinoma + squamous-cell papilloma, dosed 78 weeks, study length 105 weeks): 5.33 mg/kg/day
- TD50 (rat, strain Fischer 344, males, in feed, site: all sites, lesion: hemangiosarcoma, dosed 78 weeks, study length 105 weeks): 5.49 mg/kg/day
- TD50 [7]: 8.85 mg/kg/day
- TD50 (rat, strain Fischer 344, males, in feed, site: body cavities, lesion: mesothelioma, NOS + mesothelioma, dosed 78 weeks, study length 105 weeks): 139 mg/kg/day
- TD50 [8]: 9.28 mg/kg/day
- TD50 (rat, strain Fischer 344, males, in feed, site: liver, lesion: hepatocellular carcinoma + neoplastic nodule, dosed 78 weeks, study length 105 weeks): 9.28 mg/kg/day
- TD50 (rat, strain Fischer 344, males, in feed, site: liver, lesion: hepatocellular carcinoma, dosed 78 weeks, study length 105 weeks): 30.7 mg/kg/day
- TD50 (rat, strain Fischer 344, males, in feed, site: stomach, lesion: squamous-cell carcinoma + squamous-cell papilloma, dosed 78 weeks, study length 105 weeks): 6.28 mg/kg/day
- TD50 (rat, strain Fischer 344, males, in feed, site: stomach, lesion: squamous-cell carcinoma, dosed 78 weeks, study length 105 weeks): 6.94 mg/kg/day
- TD50 (rat, strain Fischer 344, males, in feed, site: subcutaneous tissue, lesion: fibroma, dosed 78 weeks, study length 105 weeks): 10.5 mg/kg/day
